In patent US9062046B2, “Substituted imidazoquinoline derivatives as kinase inhibitors” (Piramal Enterprises Limited, priority 2011, dated 2015):

Assays:
PC3 (prostate cell line) = assay: Cytotoxicity assay (propidium iodide assay), PC3; assay type: cell-based; conditions: Homo sapiens, PC-3, PC3 cells, 48 h treatment
In short: (§1)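 A2780 and PC3 cells, 3000/well, were treated with compound for 48 h after 18-24 h attachment. After washing, propidium iodide 7 μg/ml was added, followed by freeze-thaw at −70 °C and a fluorescence read. Viability was taken relative to untreated wells, with IC50 derived from the curves.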

[1] = tested on: A2780 (ovarian cell line); assay: Cytotoxicity assay (propidium iodide assay), A2780; assay type: cell-based; conditions: Homo sapiens, A2780 cells, 48 h treatment
In short: as §1

| Structure (SMILES) | inhibition at 1 µM (PC3 (prostate cell line)) [%] | inhibition at 1 µM [1] [%] | IC50 (PC3 (prostate cell line)) [µM] | IC50 [1] [µM] |
| --- | --- | --- | --- | --- |
| CC(C)(C#N)c1ccc(-n2c(=NC#N)[nH]c3cnc4ccc(-c5cnc(N)c(C(F)(F)F)c5)cc4c32)cc1 [Example 83, N-(8-(6-amino-5-(trifluoromethyl)pyridin-3-yl)-1-(4-(2-cyanopropan-2-yl)phenyl)-1H-imidazo[4,5-c]quinolin-2(3H)-ylidene)cyanamide] | 30 to 70 | ≥ 70 | – | – |
| Cn1c(=NC#N)n(-c2ccc(OC(F)(F)F)cc2)c2c3cc(-c4ccncc4)ccc3ncc21 [Example 109, N-(3-methyl-8-(pyridin-4-yl)-1-(4-(trifluoromethoxy)phenyl)-1H-imidazo[4,5-c]quinolin-2(3H)-ylidene)cyanamide] | – | – | 0.5 to 2 | ≤ 0.5 |
| CNc1ncc(-c2ccc3ncc4c(c3c2)n(-c2ccc(C(C)(C)C#N)cc2)c(=NC#N)n4C)cc1C(F)(F)F [Example 12, N-(1-(4-(2-cyanopropan-2-yl)phenyl)-3-methyl-8-(6-(methylamino)-5-(trifluoromethyl)pyridin-3-yl)-1H-imidazo[4,5-c]quinolin-2(3H)-ylidene)cyanamide] | – | – | ≤ 0.5 | ≤ 0.5 |
| COc1ccc(-n2c(=NC#N)n(C)c3cnc4ccc(-c5cnc(N)c(C(F)(F)F)c5)cc4c32)c(OC)n1 [Example 98, N-(8-(6-amino-5-(trifluoromethyl)pyridin-3-yl)-1-(2,6-dimethoxypyridin-3-yl)-3-methyl-1H-imidazo[4,5-c]quinolin-2(3H)-ylidene)cyanamide] | ≥ 70 | ≥ 70 | – | – |
| Cc1ccc(-c2ccc3ncc4c(c3c2)n(-c2ccc(C(C)(C)C#N)nc2)c(=NC#N)n4C)cc1 [Example 67, N-(1-(6-(2-cyanopropan-2-yl)pyridin-3-yl)-3-methyl-8-p-tolyl-1H-imidazo[4,5-c]quinolin-2(3H)-ylidene)cyanamide] | 30 to 70 | 30 to 70 | – | – |
| COc1cc(OC)cc(-n2c(=NC#N)n(C)c3cnc4ccc(-c5cnc(N)c(C(F)(F)F)c5)cc4c32)c1 [Example 97, N-(8-(6-amino-5-(trifluoromethyl)pyridin-3-yl)-1-(3,5-dimethoxyphenyl)-3-methyl-1H-imidazo[4,5-c]quinolin-2(3H)-ylidene)cyanamide] | ≥ 70 | ≥ 70 | – | – |
| COc1ccc(-n2c(=NC#N)n(C)c3cnc4ccc(-c5ccc6ncccc6c5)cc4c32)c(OC)c1 [Example 103, N-(1-(2,4-dimethoxyphenyl)-3-methyl-8-(quinolin-6-yl)-1H-imidazo[4,5-c]quinolin-2(3H)-ylidene)cyanamide] | – | – | ≤ 0.5 | ≤ 0.5 |
| COc1ccc(-n2c(=NC#N)n(C)c3cnc4ccc(-c5ccccc5OC)cc4c32)cn1 [Example 49, N-(8-(2-methoxyphenyl)-1-(6-methoxypyridin-3-yl)-3-methyl-1H-imidazo[4,5-c]quinolin-2(3H)-ylidene)cyanamide] | < 30 | 30 to 70 | – | – |
| COc1ccc(-n2c(=NC#N)n(C)c3cnc4ccc(-c5cccnc5)cc4c32)c(OC)c1 [Example 101, N-(1-(2,4-dimethoxyphenyl)-3-methyl-8-(pyridin-3-yl)-1H-imidazo[4,5-c]quinolin-2(3H)-ylidene)cyanamide] | – | – | ≤ 0.5 | ≤ 0.5 |
| COc1ccc(-n2c(=NC#N)n(C)c3cnc4ccc(-c5cccc(F)c5)cc4c32)cn1 [Example 40, N-(8-(3-fluorophenyl)-1-(6-methoxypyridin-3-yl)-3-methyl-1H-imidazo[4,5-c]quinolin-2(3H)-ylidene)cyanamide] | < 30 | 30 to 70 | – | – |
| COc1cc(-c2ccc3ncc4c(c3c2)n(-c2ccc(C(C)(C)C#N)nc2)c(=NC#N)n4C)cc(OC)c1OC [Example 57, N-(1-(6-(2-cyanopropan-2-yl)pyridin-3-yl)-3-methyl-8-(3,4,5-trimethoxyphenyl)-1H-imidazo[4,5-c]quinolin-2(3H)-ylidene)cyanamide] | 30 to 70 | ≥ 70 | – | – |
| COc1ccc(-n2c(=NC#N)n(C)c3cnc4ccc(-c5cc(F)ccc5OC)cc4c32)cn1 [Example 47, N-(8-(5-fluoro-2-methoxyphenyl)-1-(6-methoxypyridin-3-yl)-3-methyl-1H-imidazo[4,5-c]quinolin-2(3H)-ylidene)cyanamide] | < 30 | < 30 | – | – |
| COc1ccc(-n2c(=NC#N)n(C)c3cnc4ccc(-c5ccccc5C)cc4c32)cn1 [Example 34, N-(1-(6-methoxypyridin-3-yl)-3-methyl-8-o-tolyl-1H-imidazo[4,5-c]quinolin-2(3H)-ylidene)cyanamide] | < 30 | < 30 | – | – |
| COc1ccc(-n2c(=NC#N)n(C)c3cnc4ccc(-c5cccnc5C)cc4c32)cn1 [Example 45, N-(1-(6-methoxypyridin-3-yl)-3-methyl-8-(2-methylpyridin-3-yl)-1H-imidazo[4,5-c]quinolin-2(3H)-ylidene)cyanamide] | < 30 | 30 to 70 | – | – |
| COc1ccc(F)cc1-c1ccc2ncc3c(c2c1)n(-c1ccc(C(C)(C)C#N)nc1)c(=NC#N)n3C [Example 52, N-(1-(6-(2-cyanopropan-2-yl)pyridin-3-yl)-8-(5-fluoro-2-methoxyphenyl)-3-methyl-1H-imidazo[4,5-c]quinolin-2(3H)-ylidene)cyanamide] | < 30 | < 30 | – | – |
| Cn1c(=NC#N)n(-c2ccc(C(C)(C)C#N)nc2)c2c3cc(-c4ccc5c(c4)OCO5)ccc3ncc21 [Example 54, N-(8-(benzo[d][1,3]dioxol-5-yl)-1-(6-(2-cyanopropan-2-yl)pyridin-3-yl)-3-methyl-1H-imidazo[4,5-c]quinolin-2(3H)-ylidene)cyanamide] | < 30 | 30 to 70 | – | – |
| Cn1c(=NC#N)n(-c2ccc(C(C)(C)C#N)nc2)c2c3cc(-c4ccc(O)cc4)ccc3ncc21 [Example 50, N-(1-(6-(2-cyanopropan-2-yl)pyridin-3-yl)-8-(4-hydroxyphenyl)-3-methyl-1H-imidazo[4,5-c]quinolin-2(3H)-ylidene)cyanamide] | 30 to 70 | ≥ 70 | – | – |
| Cn1c(=NC#N)n(-c2cncc(-c3ccccc3)c2)c2c3cc(-c4cnc(N)c(C(F)(F)F)c4)ccc3ncc21 [Example 92, N-(8-(6-amino-5-(trifluoromethyl)pyridin-3-yl)-3-methyl-1-(5-phenylpyridin-3-yl)-1H-imidazo[4,5-c]quinolin-2(3H)-ylidene)cyanamide] | – | – | ≤ 0.5 | ≤ 0.5 |
| CC(C)Oc1ccccc1-c1ccc2ncc3c(c2c1)n(-c1ccc(C(C)(C)C#N)nc1)c(=NC#N)n3C [Example 65, N-(1-(6-(2-cyanopropan-2-yl)pyridin-3-yl)-8-(2-isopropoxyphenyl)-3-methyl-1H-imidazo[4,5-c]quinolin-2(3H)-ylidene)cyanamide] | < 30 | < 30 | – | – |
| COc1ccc(-c2ccc3ncc4c(c3c2)n(-c2ccc(C(C)(C)C#N)cc2)c(=NC#N)n4C)cn1 [Example 91, N-(1-(4-(2-cyanopropan-2-yl)phenyl)-8-(6-methoxypyridin-3-yl)-3-methyl-1H-imidazo[4,5-c]quinolin-2(3H)-ylidene)cyanamide] | – | – | ≤ 0.5 | ≤ 0.5 |
